Test results: patent US4005213A, “2,5-Substituted-1,3,4-thiadiazoles as fungicides” (Schering Aktiengesellschaft, priority 1968, dated 1977)

Experiments:
[1] = tested on: Aspergillus niger; assay: Agar test, Aspergillus niger (Example 7); type: cell-based; details: 10 ppm in malt extract agar, 5 days at 22° C.; control 100
Method: (§1) The fungicidal action of the agents according to the invention was tested in artificial nutrient media against plant-pathogenic fungi in Petri dishes (agar test). The procedure was to sterilize the medium consisting of 2% malt extract and 1.5% agar-agar powder. Before the solidification of the medium, the active substances were added to it, mixing thoroughly, so that the medium received 10 parts of active substance per million (ppm). After the solidification of the medium, the latter was inoculated with a platinum dropper which contained 100 spores each of the fungi to be tested, and after 5 days at 22° C., an evaluation was made by measuring the diameter of the colonies in mm.

[2] = tested on: Damping-off Fungi; assay: Cotton seed disinfection in normal compost soil (Example 6); type: in vivo; details: 100 mg active ingr. per kg of seed, 15 days, 22°-25° C.
Method: Cotton seeds disinfected with 10% formulations were seeded in normal compost soil (Damping-off Fungi), 25 grains per concentration. After a cultivation time of 15 days at 22°-25° C., the number of germinated sound cotton seedlings and their weight as fresh plants were determined.

[3] = tested on: Pyrenochaeta lycopersici; assay: Control of Pyrenochaeta lycopersici, corky root disease of the tomato, open field (Example 9); type: in vivo; details: for Weight of single tomato (% of untreated): 0 g = 100%; for Tomatoes per plant / Weight of single tomato / Yield per plant: 10% granulate
Source text: Control of Pyrenochaeta lycopersici, corky root disease of the tomato.
On a naturally infested open field area, 2-dichloromethyl-5-methylsulfonyl-1,3,4-thiadiazole was scattered as a 10% granulate formulation and hoed in 20 cm deep. […] After a reaction period of 3 weeks, tomato plants of the variety "Ronald-M" which were 8 weeks old were set out at a distance from each other of 50 × 70 cm. The harvest results indicated in the table are average values of 40 plants per lot and refer to harvested ripe tomatoes.

[4] = tested on: Stemphylium ilicis; assay: Agar test, Stemphylium ilicis (Example 7); type: cell-based; details: 10 ppm in malt extract agar, 5 days at 22° C.; control 100
Method: as §1

[5] = tested on: Pythium ultimum; assay: Pea test in soil inoculated with Pythium ultimum (Example 2); type: in vivo; parameters: key to Root evaluation (1-4): 4 = white roots, no necroses … 1 = severe necroses, roots rotted; details: for Root evaluation (1-4): 3 weeks; for Number of sound peas after 3 wks.: 25 grains seeded
Method: Steamed compost soil was inoculated with mycelium of Pythium ultimum. […] The following table lists the number of germinated sound peas, the weight of the fresh plant, and a root evaluation after a cultivation period of 3 weeks at 22°-25° C.
4 = white roots, without fungus necroses
3 = white roots, slight fungus necroses
2 = brown roots, more intense fungus necroses
1 = severe fungus necroses, roots rotted

[6] = tested on: Meloidogyne incognita; assay: Nematocidal action against root gall nematodes, cucumber (Example 8); type: in vivo; details: reduction of attack, 30 days
Method: The products as 20% powder preparations were homogeneously admixed with a compost soil heavily infested by root gall nematodes. Without a waiting period, 20 cucumber seeds per concentration were seeded. After a cultivation time of 30 days at a temperature of 23°-25° C., the nematocidal action was evaluated by counting the root galls formed in the waterbath. The following table states the reduction of attack in percent. In the control, an average of 90 root galls per seedling had formed.

[7] = tested on: Pythium ultimum; assay: Fungistatic and fungicidal action on Pythium ultimum of preparations with varying active ingredient percentages (Example 4); type: in vivo; details: for Number of sound peas after 3 wks.: 25 grains seeded
Source text: Comparison of the fungistatic and fungicidal action on Pythium ultimum when using preparations with varying active ingredient percentages on siliceous clay. Steamed compost soil was inoculated with mycelium of Pythium ultimum. After forming a homogeneous mixture of the products with the infested soil, […], the seeding of 25 grains of marrow peas of the variety Miracle of Kelvedon per concentration in clay dishes holding 1 liter of soil followed without a waiting period. In the table is stated the number of germinated sound peas, the weight of the fresh plant, and a root evaluation after a cultivation period of 3 weeks at 22°-25° C.

[8] = tested on: Pythium ultimum; assay: Limit concentration of soil-fungicidal effectiveness, Pythium ultimum infested soil, peas (Example 1); type: in vivo; details: Globisporangium ultimum, 20 to 23 days, 22°-25° C., germination at least 90% vs steamed soil
Method: (§2) Limit concentrations of the soil-fungicidal effectiveness at homogeneous mixture of the products with the infested soil. Basic condition in the evaluation are a sound root formation without fungus necroses and germination of the seed of at least 90% compared with the result obtained in steamed soil. Per concentration there were seeded 25 grains of peas of the variety "Miracle of Kelvedon" (marrow pea) without a waiting period. the cultivation time in the tests was 20 to 23 days at a temperature of 22°-25° C. Four commercial products were included in the test series.
Pythium ultimum: Steamed compost soil was inoculated with mycelium of Pythium ultimum

[9] = tested on: Rhizoctonia solani; assay: Pea test in soil inoculated with Rhizoctonia solani (Example 3); type: in vivo; details: 3 weeks
Source text: Steamed compost soil was inoculated with mycelium of Rhizoctonia solani. After homogeneous mixture of the products with the infested soil, the products were present in the form of 20% powder preparations, the seeding of 25 grains of marrow peas of the variety Miracle of Kelvedon per concentration was effected without waiting period in clay dishes holding 1 liter of soil. The table lists the number of germinated sound peas, the weight of the fresh plant, and a root evaluation after a cultivation period of 3 weeks at 22°-25° C.

[10] = acute oral toxicity in rats; details: rat, in vivo
[11] = tested on: Rhizoctonia solani; assay: Limit concentration of soil-fungicidal effectiveness, Rhizoctonia solani infested soil, peas (Example 1); type: in vivo; details: 20 to 23 days, 22°-25° C., germination at least 90% vs steamed soil
Method: as §2
Rhizoctonia solani: Steamed compost soil was inoculated with mycelium of Rhizoctoniz solani.

[12] = tested on: Helminthosporium sativum; assay: Agar test, Helminthosporium sativum (Example 7); type: cell-based; details: 10 ppm in malt extract agar, 5 days at 22° C.; control 100
Method: as §1

[13] = tested on: Botrytis cinerea; assay: Agar test, Botrytis cinerea (Example 7); type: cell-based; details: 10 ppm in malt extract agar, 5 days at 22° C.; control 100
Method: as §1

[14] = tested on: Colletotrichum gloeosporioides; assay: Agar test, Colletotrichum gloeosporioides (Example 7); type: cell-based; details: 10 ppm in malt extract agar, 5 days at 22° C.; control 100
Method: as §1

[15] = 10 g active ingr. per square meter
[16] = 20 g active ingr. per square meter
[17] = 10 mg active ingr. per liter of soil
[18] = 20 mg active ingr. per liter of soil
[19] = 30 mg active ingr. per liter of soil
[20] = 5% formulation, 6 mg active ingr. per liter of soil
[21] = 5% formulation, 10 mg active ingr. per liter of soil
[22] = 10% formulation, 10 mg active ingr. per liter of soil
[23] = 20% formulation, 6 mg active ingr. per liter of soil
[24] = 200 mg active ingr. per liter of soil

## CS(=O)(=O)c1nnc(C(Cl)Cl)s1 [Compound 17, 2-dichloromethyl-5-methylsulfonyl-1,3,4-thiadiazole]
[1]
  diameter of the colonies, Aspergillus niger: 0 mm
[2]
  Sound plants in %: 100%
[3]; [15]
  Weight of single tomato (% of untreated): 110%
  Tomatoes per plant: 27
  Weight of single tomato: 66 g
  Yield per plant: 1774 g
[3]; [16]
  Weight of single tomato (% of untreated): 130%
  Tomatoes per plant: 28
  Weight of single tomato: 78 g
  Yield per plant: 2209 g
[4]
  diameter of the colonies, Stemphylium ilicis: 0 mm
[5]; [17]
  Root evaluation (1-4): 4
[5]; [18]
  Root evaluation (1-4): 4
  Number of sound peas after 3 wks.: 24
[5]; [19]
  Root evaluation (1-4): 4
  Number of sound peas after 3 wks.: 24
[6]; 40 mg active substance per liter of soil
  Nematocidal action in % (Meloidogyne incognita): 90%
[6]; 60 mg active substance per liter of soil
  Nematocidal action in % (Meloidogyne incognita): 94%
[7]; [20]
  Weight of fresh plant: 9 g
  Number of sound peas after 3 wks.: 12
[7]; [21]
  Weight of fresh plant: 20 g
  Number of sound peas after 3 wks.: 24
[7]; 10% formulation, 6 mg active ingr. per liter of soil
  Weight of fresh plant: 15 g
[7]; [22]
  Weight of fresh plant: 24 g
  Number of sound peas after 3 wks.: 22
[7]; [23]
  Weight of fresh plant: 17 g
  Number of sound peas after 3 wks.: 22
[7]; 20% formulation, 10 mg active ingr. per liter of soil
  Weight of fresh plant: 16 g
[8]
  minimal effective concentration: 10 µg/mL
[9]; [18]
  Root evaluation (1-4): 4
[9]; [19]
  Root evaluation (1-4): 4

## CS(=O)(=O)c1nnc(C(Cl)(Cl)Cl)s1 [Compound 21, 2-trichloromethyl-5-methylsulfonyl-1,3,4-thiadiazole]
[1]
  diameter of the colonies, Aspergillus niger: 0 mm
[2]
  Sound plants in %: 100%
[4]
  diameter of the colonies, Stemphylium ilicis: 0 mm
[10]
  LD50: 717 mg/kg
[8]
  minimal effective concentration: 40 µg/mL
[9]; [17]
  Root evaluation (1-4): 4
[9]; [18]
  Root evaluation (1-4): 4
[9]; [19]
  Root evaluation (1-4): 4

## CS(=O)(=O)c1nnc(C(F)(F)Cl)s1 [Compound 54, 2-chlorodifluoromethyl-5-methylsulfonyl-1,3,4-thiadiazole]
[11]
  minimal effective concentration: 20 µg/mL
[8]
  minimal effective concentration: 10 µg/mL

## C[S+]([O-])c1nnc(C(F)(F)Cl)s1 (centres unmarked) [Compound 55, 2-chlorodifluoromethyl-5-methylsulfinyl-1,3,4-thiadiazole]
[11]
  minimal effective concentration: 10 µg/mL
[8]
  minimal effective concentration: 10 µg/mL

## S=C([S-])NCCNC(=S)[S-].[Zn+2] [Zinc ethylene-bis-dithiocarbamate, reference compound]
[12]
  diameter of the colonies, Helminthosporium sativum: 50 mm
[13]
  diameter of the colonies, Botrytis cinerea: 36 mm
[1]
  diameter of the colonies, Aspergillus niger: 78 mm
[4]
  diameter of the colonies, Stemphylium ilicis: 55 mm
[5]; [24]
  Root evaluation (1-4): 1
  Number of sound peas after 3 wks.: 14
[14]
  diameter of the colonies, Colletotrichum gloeosporioides: 81 mm
